Results from patent US11345885B2, “Agent for inducing callus and method for inducing callus” (RIKEN, priority 2014, dated 2022).

Tests used:
[1] = system: hypocotyl of Arabidopsis (Columbia); assay: Functional analysis of putative fipexide metabolites, morphological observation of cut hypocotyl on 1/2 MS medium; assay type: cell-based; settings: for callus induction activity: 0, 5, 15, 30, 45 or 60 μM in 1/2 MS medium, hypocotyl
Excerpt: Fipexide is a compound formed by an amide bond between 4-chlorophenoxyacetic acid and 1-piperonylpiperazine, and fipexide is deduced to be non-enzymatically hydrolyzed in a plant. Thus, treatment with 4-chlorophenoxyacetic acid or 1-piperonylpiperazine alone or treatment with both thereof was attempted.
Arabidopsis (Columbia) was allowed to germinate under weak lighting conditions for 7 days, the hypocotyl cut therefrom was placed on a ½ MS medium supplemented with 4-chlorophenoxyacetic acid and/or 1-piperonylpiperazine at 0, 5, 15, 30, 45, or 60 μM, and morphological observation thereof was conducted.

tomato seed (Micro-Tom) = assay: Fipexide activity test using other plants: tomato seed in fipexide medium; assay type: in vivo
Description: (§1) As with the case of Arabidopsis germination conditions, plants were cultured in a fipexide medium with the use of sterilized seeds.

[2] = system: Populus stalk samples (Populus tremula x tremuloides T89); assay: Transformation by the Agrobacterium method utilizing callus induction caused by fipexide; assay type: cell-based
Description: Under general callus induction conditions for Populus, callus induction was conducted with the use of fipexide instead of auxin/cytokinine, and whether or not Agrobacterium-infected callus was transformed was examined. The GUS gene was introduced into a pH35GS binary vector comprising a Gateway cassette (Kubo M. et al., Genes & Dev., 19, 1855-1860, 2005) (manufactured by […] Innovations Inc.; Production code: IN3-VEC17) using the Gateway system, and the resulting binary vector was used for the Agrobacterium method, so as to confirm infection. 1. From young plants of aseptically cultured Populus (Populus tremula x tremuloides […]) that had been grown in pots, stalk samples (length: 5 mm) were cut. 2. The stalk samples were cultured in the presence of Agrobacterium (for 3 days, in the dark, at 22° C.). 3. After Agrobacterium was washed away, the stalk samples were placed on MS1 medium or modified MS1 medium (containing 30 μM fipexide instead of 3-indolebutyric acid (IBA) and 6-benzylaminopurine (BAP)) and cultured at 25° C. 4. […] Two months after the initiation of callus induction culture, 23 calluses were fixed in 90% (w/w) acetone at -30° C. overnight, the samples were washed twice with 50 mM PBS buffer (pH 7.0), and the samples were subjected to incubation in GUS substrate solution at 37° C. for 15 minutes for staining.

[3] = system: stalks and roots of wild-type Populus; assay: Fipexide callus induction and redifferentiation in stalks and roots of Populus; assay type: cell-based
Description: The induced callus was cultured in a redifferentiation medium (i.e., a MS medium (0.9% agarose and 1.5% sucrose) containing auxin (indoleacetic acid) at 0.15 mg/1 and cytokinine (N^6-2-isopentenyladenine) at 0.5 mg/l or a ½ MS medium (0.9% Phytoagar (agarose for plants) and 0.2% sucrose) containing 3-indolebutyric acid (IBA) at 0.1 mg/l and 6-benzylaminopurine (BAP) at 0.2 mg/l).
The conditions of the aseptic stalk (which is not the hypocotyl) and the root organ sections of wild-type Populus 30 days after cutting in the presence of fipexide are shown at the center of FIG. 7, and the conditions thereof 30 days after the medium was exchanged with a fresh redifferentiation medium are shown on the right of FIG. 7.

[4] = system: root organ of Arabidopsis (Columbia); assay: Callus induction and redifferentiation by treatment with fipexide (cut root organ); assay type: cell-based; settings: fipexide 45 μM for 2 weeks
Description: The root organ of Arabidopsis (Columbia) was cut, treated in a ½ MS medium supplemented with fipexide at 45 μM for 2 weeks to induce a callus, and then cultured in a redifferentiation medium (auxin/cytokinine). […] In contrast, the root organ of Arabidopsis (Columbia) was cut and then cultured in the redifferentiation medium without callus induction. As a result, redifferentiation was not observed (FIG. 2B).

[5] = system: Arabidopsis (Columbia) wild-type seeds; assay: Morphological observation of Arabidopsis (Columbia) by treatment with fipexide (seeds sowed in 1/2 MS medium); assay type: in vivo; settings: for callus formation (site): 1/2 MS medium, seeds
Description: Wild-type seeds of Arabidopsis (Columbia) were sowed in a ½ MS medium supplemented with fipexide at 0, 15, 30, or 45 μM, and morphological observation was conducted.

Arabidopsis hypocotyl = assay: Comparison of fipexide with conventional technique (2,4-D/kinetin) for callus induction; assay type: cell-based; settings: fipexide 45 μM vs 2,4-dichlorophenoxyacetic acid 2.26 μM and kinetin 0.465 μM, constant lighting, 87 days
Description: Callus induction in Arabidopsis that was carried out at the optimized auxin/cytokinine concentration (i.e., 2,4-dichlorophenoxyacetic acid at 2.26 μM and kinetin at 0.465 μM) was compared with callus induction that was carried out at the fipexide concentration of 45 μM.

[6] = system: cucumber seed (Natsu Suzumi); assay: Fipexide activity test using other plants: cucumber seed in fipexide medium; assay type: in vivo
Description: as §1

[7] = system: wild-type rice (Nipponbare); assay: Fipexide activity test using other plants: rice seeds in fipexide medium; assay type: in vivo
Description: as §1

[8] = system: germinated Eucalyptus seeds; assay: Fipexide activity test using other plants: Eucalyptus seeds in fipexide medium; assay type: in vivo
Description: as §1

soybean seed (Tsurunoko) = assay: Fipexide activity test using other plants: soybean seed in fipexide medium; assay type: in vivo
Description: as §1

[9] = system: African violet leaf explants; settings: cited from earlier work

Compound | callus induction activity [1] | leaf area ([1]; treatment alone) | number and length of lateral roots ([1]; treatment alone) | callus induction (tomato seed (Micro-Tom)) | GUS activity in calluses (transformation) ([2]; 23 calluses, two months after initiation of callus induction culture, 30 μM fipexide) | callus formation on the fourth week ([2]; Agrobacterium-treated stalk samples, 25° C., modified MS1 medium with 30 μM fipexide vs conventional MS1 medium) | redifferentiation of the induced callus in redifferentiation medium ([3]; MS medium with indoleacetic acid 0.15 mg/l and N6-2-isopentenyladenine 0.5 mg/l, or 1/2 MS medium with IBA 0.1 mg/l and BAP 0.2 mg/l) | callus induction ([3]; stalks and roots of Populus in fipexide medium) | redifferentiation in redifferentiation medium (auxin/cytokinine) after callus induction [4] | callus formation (site) ([5]; fipexide 15 μM (low concentration)) | callus formation (site) ([5]; fipexide 45 μM (high concentration)) | callus formation in the root ([5]; fipexide at high concentration) | callus induction efficiency compared with optimized auxin/cytokinine (Arabidopsis hypocotyl) | callus induction [6] | callus formation ([7]; fipexide 45 μM, 30 days after seed germination) | callus induction ([7]; germinated rice seeds, fipexide medium) | callus induction [8] | callus induction (soybean seed (Tsurunoko)) | callus formation efficiency [9] | number of days required from implanting of explants to callus formation, and formation of adventitious shoots and adventitious roots ([9]; treatment at a particular concentration)
c1cc2c(cc1CN1CCNCC1)OCO2 [1-piperonylpiperazine, 1-(3,4-methylenedioxybenzyl)piperazine] | callus induction activity was not observed | enlarged | increased |  |  |  |  |  |  |  |  |  |  |  |  |  |  |  |  | 
O=C(COc1ccc(Cl)cc1)N1CCN(Cc2ccc3c(c2)OCO3)CC1 [fipexide, 1-[(p-chlorophenoxy)acetyl]-4-piperonylpiperazine] | callus induction activity was observed |  |  | callus induction was observed | GUS activity was observed in all samples | many calluses were formed | redifferentiation was observed | callus induction was observed in the stalks and the roots | redifferentiation was observed | callus formation was mainly observed in the root | in the shoot apex | suppressed | higher than that attained at the optimized auxin/cytokinine concentration | callus induction was observed | Callus formation was observed | callus induction was observed | callus induction was observed | callus induction was observed |  | 
O=C(O)COc1ccc(Cl)cc1 [4-chlorophenoxyacetic acid] | callus induction activity was observed |  |  |  |  |  |  |  |  |  |  |  |  |  |  |  |  |  | not high | reduced
